Experimental data taken from patent publication US10227281B2, “Preparation of 2,6- and 2,7-disubstituted anthraquinone derivates” (BASF SE, priority 2014, dated 2019).
In brackets after ≈: the same amount, converted by molar mass.

Tests used:
[1] = Determination of the solubility of anthraquinone derivatives in xylene/diisobutylcarbinol; conditions: for Solubility in the solvent system used (in words): xylene/diisobutylcarbinol solvent system, comparison of the derivatives
Procedure: 0.06 ml of a mixture of xylene (50 volume-%) and diisobutylcarbinol (50 volume-%) were added to 1 g of the respective anthraquinone derivative at 22° C. every 60 seconds until the anthraquinone derivative was dissolved completely.

[2] = Solubility of the anthrahydroquinone from the amount of absorbed hydrogen until precipitation; assay type: physicochemical; conditions: hydroquinone form, equivolume mixture of xylene and diisobutylcarbinol, 30° C.
Procedure: 5 g of the anthraquinone derivative obtained from Example 4 were dissolved in an equivolume mixture of xylene and diisobutylcarbinol at 30° C. to obtain 100 ml of an anthraquinone solution. 2 g of a palladium catalyst on alumina was added to 50 ml of the anthraquinone solution and then the solution was made to absorb the theoretical amount of hydrogen at 30° C. The obtained solution has been left untouched for 15 h to thoroughly precipitate the excess of anthrahydroquinone. After the catalyst and the precipitate have been separated by filtration under a current of nitrogen, the resulting solution was stirred under air in order to oxidize the anthrahydroquinone back to the corresponding anthraquinone. The produced hydrogen peroxide was extracted with water. After the extraction of the hydrogen peroxide was completed, 25 mL of the working solution were further submitted to subsequent hydrogenation at 30° C. as described above until a state of saturation was reached.

[3] = mixture of xylene (50 volume-%) and diisobutylcarbinol (50 volume-%), 22° C., quinone form

| Compound | Solubility [1, 3] | Solubility of the anthrahydroquinone [2] [mM] | Solubility in the solvent system used (in words) [1] | Solubility ([1]; xylene/diisobutylcarbinol mixture (50:50 by volume)) [mM] |
| --- | --- | --- | --- | --- |
| 2,6-bis(4-methylpent-3-enyl)anthracene-9,10-dione and 2,7-bis(4-methylpent-3-enyl)anthracene-9,10-dione [Example 1] | 770 mM |  |  |  |
| 2,6-diisohexylanthracene-9,10-dione and 2,7-diisohexylanthracene-9,10-dione [Example 4] | 1610 mM | 1010 | highest solubility |  |
| CCc1ccc2c(c1)C(=O)c1ccccc1C2=O [2-ethylanthraquinone] |  |  | only poorly soluble |  |
| CC(C)=CCc1ccc2c(c1)C(=O)c1ccccc1C2=O [Comparative Example 1, 2-(3-methylbut-2-en-1-yl)anthracene-9,10-dione] |  |  |  | 770 (≈ 213 mg/mL) |
| Cc1cc2c(cc1C)C(=O)c1cc(C)c(C)cc1C2=O [Comparative Example 3, 2,3,6,7-tetramethylanthracene-9,10-dione] | Insoluble |  | insoluble |  |
